Patent US8981087B2, “Benzo [E] [1,3] oxazin-4-one derivatives as phosphoinositide 3-kinase inhibitors” (Karus Therapeutics Limited, priority 2009, dated 2015)
Read-outs that look alike come from different tables or passages of the source.

Experiments:
[1] = biological target: PI3K-p110β (Homo sapiens, UniProt P42338); experiment: Biochemical PI3K-p110β inhibition
[2] = biological target: PI3K-p110γ (Homo sapiens, UniProt P48736); experiment: Biochemical PI3K-p110γ inhibition
[3] = biological target: PI3K-p110 α (Homo sapiens, UniProt P42336); experiment: Biochemical PI3K-p110α inhibition
Chain of PI3K-p110 α (P42336 whole entry): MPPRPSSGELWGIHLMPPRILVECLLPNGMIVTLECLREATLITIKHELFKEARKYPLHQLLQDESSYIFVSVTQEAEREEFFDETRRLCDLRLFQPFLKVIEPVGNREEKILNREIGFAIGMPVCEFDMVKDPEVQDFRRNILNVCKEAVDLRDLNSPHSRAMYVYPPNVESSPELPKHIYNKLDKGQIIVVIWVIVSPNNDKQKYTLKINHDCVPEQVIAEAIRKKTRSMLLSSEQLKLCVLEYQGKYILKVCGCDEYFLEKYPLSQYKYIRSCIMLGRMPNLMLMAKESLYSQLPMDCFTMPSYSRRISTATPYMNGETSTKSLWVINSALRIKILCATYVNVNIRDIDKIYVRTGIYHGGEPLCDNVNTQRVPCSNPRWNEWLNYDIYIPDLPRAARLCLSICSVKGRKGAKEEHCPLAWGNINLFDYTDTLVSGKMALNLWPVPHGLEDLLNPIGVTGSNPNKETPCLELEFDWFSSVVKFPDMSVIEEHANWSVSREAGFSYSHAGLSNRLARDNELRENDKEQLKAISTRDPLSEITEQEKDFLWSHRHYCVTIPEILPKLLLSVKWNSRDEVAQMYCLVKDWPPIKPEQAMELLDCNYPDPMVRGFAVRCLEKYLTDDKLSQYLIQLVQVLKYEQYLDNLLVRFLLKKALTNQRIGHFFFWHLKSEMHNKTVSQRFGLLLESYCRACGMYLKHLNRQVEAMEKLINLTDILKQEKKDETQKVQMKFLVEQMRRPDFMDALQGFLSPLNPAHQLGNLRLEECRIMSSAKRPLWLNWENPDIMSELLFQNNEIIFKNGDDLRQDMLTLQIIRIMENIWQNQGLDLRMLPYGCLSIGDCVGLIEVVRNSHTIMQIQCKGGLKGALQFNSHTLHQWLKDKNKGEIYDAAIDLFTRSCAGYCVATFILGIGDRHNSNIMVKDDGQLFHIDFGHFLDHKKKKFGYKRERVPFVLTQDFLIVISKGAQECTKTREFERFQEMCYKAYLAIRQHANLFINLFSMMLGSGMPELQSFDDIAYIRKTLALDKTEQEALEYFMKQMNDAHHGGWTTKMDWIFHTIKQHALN
Chain of PI3K-p110 α (P27986 whole entry partner): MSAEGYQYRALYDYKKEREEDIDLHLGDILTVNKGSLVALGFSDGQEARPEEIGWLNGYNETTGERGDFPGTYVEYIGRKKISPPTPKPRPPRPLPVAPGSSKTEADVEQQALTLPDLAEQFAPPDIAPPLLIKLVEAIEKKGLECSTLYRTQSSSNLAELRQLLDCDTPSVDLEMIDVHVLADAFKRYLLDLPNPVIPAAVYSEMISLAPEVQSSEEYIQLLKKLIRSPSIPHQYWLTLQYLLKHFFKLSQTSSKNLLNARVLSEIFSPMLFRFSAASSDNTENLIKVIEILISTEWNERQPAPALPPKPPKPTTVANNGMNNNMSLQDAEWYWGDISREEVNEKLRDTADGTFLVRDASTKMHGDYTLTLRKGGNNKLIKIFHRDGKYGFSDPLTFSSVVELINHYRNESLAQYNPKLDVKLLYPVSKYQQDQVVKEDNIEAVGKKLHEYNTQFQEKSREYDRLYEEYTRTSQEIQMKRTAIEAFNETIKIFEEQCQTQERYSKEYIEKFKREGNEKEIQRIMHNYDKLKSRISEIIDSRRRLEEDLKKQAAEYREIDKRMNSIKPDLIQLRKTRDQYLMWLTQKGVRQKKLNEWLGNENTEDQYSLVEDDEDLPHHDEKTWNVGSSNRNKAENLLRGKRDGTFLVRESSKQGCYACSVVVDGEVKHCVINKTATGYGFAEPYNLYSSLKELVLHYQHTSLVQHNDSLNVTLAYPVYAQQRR

[4] = biological target: PI3K-p110δ (Homo sapiens, UniProt O00329); experiment: Biochemical PI3K-p110δ inhibition
Chain of PI3K-p110δ (O00329 whole entry): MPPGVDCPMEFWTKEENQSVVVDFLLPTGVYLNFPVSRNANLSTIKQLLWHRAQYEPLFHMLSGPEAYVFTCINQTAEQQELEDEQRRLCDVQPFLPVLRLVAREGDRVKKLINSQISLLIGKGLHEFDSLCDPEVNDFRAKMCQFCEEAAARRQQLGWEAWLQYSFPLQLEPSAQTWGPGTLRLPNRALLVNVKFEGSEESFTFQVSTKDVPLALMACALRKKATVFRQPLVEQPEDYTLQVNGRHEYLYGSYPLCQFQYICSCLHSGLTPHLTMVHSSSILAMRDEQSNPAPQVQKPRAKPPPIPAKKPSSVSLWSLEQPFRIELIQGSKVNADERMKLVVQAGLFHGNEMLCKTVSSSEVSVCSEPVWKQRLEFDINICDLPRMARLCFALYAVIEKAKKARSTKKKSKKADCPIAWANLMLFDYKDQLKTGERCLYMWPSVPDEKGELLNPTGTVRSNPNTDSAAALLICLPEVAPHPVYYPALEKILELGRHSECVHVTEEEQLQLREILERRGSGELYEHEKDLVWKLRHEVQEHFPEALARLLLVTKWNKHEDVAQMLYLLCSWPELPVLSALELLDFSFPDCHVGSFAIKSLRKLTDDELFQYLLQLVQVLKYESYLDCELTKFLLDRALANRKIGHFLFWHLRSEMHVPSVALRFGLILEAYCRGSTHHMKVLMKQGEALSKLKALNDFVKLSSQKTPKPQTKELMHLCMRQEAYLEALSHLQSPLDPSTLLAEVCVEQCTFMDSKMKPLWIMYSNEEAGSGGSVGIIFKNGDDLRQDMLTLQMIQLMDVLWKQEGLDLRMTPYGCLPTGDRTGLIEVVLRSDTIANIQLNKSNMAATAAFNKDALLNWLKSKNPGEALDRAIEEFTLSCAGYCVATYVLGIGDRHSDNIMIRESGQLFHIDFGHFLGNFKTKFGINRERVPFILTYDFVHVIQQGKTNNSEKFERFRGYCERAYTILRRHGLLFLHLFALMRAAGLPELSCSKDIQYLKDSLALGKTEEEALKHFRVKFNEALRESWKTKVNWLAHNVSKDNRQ
Chain of PI3K-p110δ (P27986 whole entry partner): as the sequence (P27986 whole entry partner) above

Chain of PI3K-p110β (P42338 whole entry): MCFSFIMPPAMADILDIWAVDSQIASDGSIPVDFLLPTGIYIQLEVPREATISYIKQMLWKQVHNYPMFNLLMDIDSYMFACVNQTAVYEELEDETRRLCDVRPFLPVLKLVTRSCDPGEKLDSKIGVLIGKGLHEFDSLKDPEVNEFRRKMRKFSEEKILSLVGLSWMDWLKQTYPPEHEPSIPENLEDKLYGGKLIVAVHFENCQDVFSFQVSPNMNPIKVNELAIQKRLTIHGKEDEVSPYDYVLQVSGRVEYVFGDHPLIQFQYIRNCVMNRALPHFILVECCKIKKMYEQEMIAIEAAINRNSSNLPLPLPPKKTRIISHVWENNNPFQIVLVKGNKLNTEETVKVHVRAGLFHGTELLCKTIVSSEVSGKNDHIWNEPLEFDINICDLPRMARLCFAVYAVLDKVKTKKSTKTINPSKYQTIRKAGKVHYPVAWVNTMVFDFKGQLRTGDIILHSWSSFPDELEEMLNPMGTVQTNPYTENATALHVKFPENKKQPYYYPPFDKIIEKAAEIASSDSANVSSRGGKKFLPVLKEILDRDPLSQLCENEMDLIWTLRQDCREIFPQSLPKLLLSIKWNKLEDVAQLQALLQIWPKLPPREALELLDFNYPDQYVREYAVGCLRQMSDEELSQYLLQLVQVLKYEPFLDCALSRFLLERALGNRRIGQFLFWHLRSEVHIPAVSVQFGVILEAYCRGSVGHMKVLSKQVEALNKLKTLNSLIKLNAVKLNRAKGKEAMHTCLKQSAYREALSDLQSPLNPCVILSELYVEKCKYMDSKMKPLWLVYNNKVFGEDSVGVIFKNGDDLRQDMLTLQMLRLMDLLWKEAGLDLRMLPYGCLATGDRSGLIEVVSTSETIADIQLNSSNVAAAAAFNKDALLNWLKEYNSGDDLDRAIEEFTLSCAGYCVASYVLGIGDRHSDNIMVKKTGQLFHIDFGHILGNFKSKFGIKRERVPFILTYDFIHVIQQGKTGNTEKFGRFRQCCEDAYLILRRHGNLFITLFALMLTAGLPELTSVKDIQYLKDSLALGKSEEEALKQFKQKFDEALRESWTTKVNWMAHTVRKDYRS
Chain of PI3K-p110β (P27986 whole entry partner): as the sequence (P27986 whole entry partner) above
Chain of PI3K-p110γ (P48736 whole entry): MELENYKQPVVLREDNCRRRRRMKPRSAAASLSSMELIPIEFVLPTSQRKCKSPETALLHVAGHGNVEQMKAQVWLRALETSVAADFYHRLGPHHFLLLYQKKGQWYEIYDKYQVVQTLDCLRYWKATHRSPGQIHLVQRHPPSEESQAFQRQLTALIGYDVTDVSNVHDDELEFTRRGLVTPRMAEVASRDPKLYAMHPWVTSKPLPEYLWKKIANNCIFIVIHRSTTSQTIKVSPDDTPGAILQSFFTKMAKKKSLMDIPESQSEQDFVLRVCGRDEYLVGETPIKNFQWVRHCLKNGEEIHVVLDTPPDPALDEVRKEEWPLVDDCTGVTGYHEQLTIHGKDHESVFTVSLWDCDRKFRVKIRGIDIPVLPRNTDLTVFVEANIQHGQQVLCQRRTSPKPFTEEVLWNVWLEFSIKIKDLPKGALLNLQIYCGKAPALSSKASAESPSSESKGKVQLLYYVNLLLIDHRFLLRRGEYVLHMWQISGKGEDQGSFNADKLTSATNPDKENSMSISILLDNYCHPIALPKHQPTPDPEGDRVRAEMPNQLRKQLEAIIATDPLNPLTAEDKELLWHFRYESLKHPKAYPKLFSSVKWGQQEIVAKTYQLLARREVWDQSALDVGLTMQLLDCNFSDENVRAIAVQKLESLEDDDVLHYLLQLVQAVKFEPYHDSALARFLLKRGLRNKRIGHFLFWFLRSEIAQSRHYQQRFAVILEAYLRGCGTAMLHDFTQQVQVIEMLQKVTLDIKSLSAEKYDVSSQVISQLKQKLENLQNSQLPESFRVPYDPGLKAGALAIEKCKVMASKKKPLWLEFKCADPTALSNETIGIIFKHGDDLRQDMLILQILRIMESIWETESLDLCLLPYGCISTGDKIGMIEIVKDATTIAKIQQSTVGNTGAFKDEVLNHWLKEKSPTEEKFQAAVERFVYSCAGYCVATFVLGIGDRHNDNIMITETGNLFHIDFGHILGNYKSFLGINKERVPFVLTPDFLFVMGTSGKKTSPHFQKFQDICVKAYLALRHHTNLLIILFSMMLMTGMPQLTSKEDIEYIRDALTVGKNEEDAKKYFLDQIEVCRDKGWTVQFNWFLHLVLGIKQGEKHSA

Nc1ccc(-c2cccc3c(=O)nc(N4CCOCC4)oc23)cc1 [Compound A, 8-(4-aminophenyl)-2-morpholino-4H-benzo[e][1,3]oxazin-4-one]
IC50 ([1]; Class IA enzyme, read-out: IC50 PI3K-p110β (uM) (Class IA Enzyme)): 2.34 µM
class IA/IB PI3K selectivity ([1]; compared with industry-standard inhibitor LY294002, p110β vs p110γ): greater class IA/IB PI3K selectivity compared with industry-standard inhibitor, LY294002
IC50 ([2]; Class IB enzyme, read-out: IC50 PI3K-p110γ (uM) (Class IB Enzyme)): 20.5 µM

Nc1ccc(-c2cccc3c(=O)nc(N4CCOCC4)oc23)c(F)c1 [Compound B, 8-(4-Amino-2-fluoro-phenyl)-2-morpholin-4-yl-benzo[e][1,3]oxazin-4-one]
IC50 ([1]; read-out: IC50 PI3K-p110β): 0.538 µM
selectivity for PI3K-p110β ([1]; versus p110α, p110δ, p110γ): displays selectivity for PI3K-p110β
IC50 ([2]; read-out: IC50 PI3K-p110γ): 17.8 µM
IC50 [3]: 3410 nM
IC50 [4]: 1690 nM
